Laboratory results taken from ChEMBL document CHEMBL1135343, “Glutathione-like tripeptides as inhibitors of glutathionylspermidine synthetase. Part 2: substitution of the glycine part” (Bioorg Med Chem Lett, 2002).
“And” between values parts separate entries of the source, which are not always exact repeats. Equal entries are not always repeated. Numbered stars: 1 amine (or outer) side, 2 acyl side, 3 side chain; on linkers, the order of the positions; unused ones are H or OH. Square brackets hold non-standard residues; d marks the D form. Peptide text beside a SMILES is read from it. γGlu = O=C(O)[C@H](CCC(=O)[*:2])N[*:1]; Orn = NCCC[C@H](N)C(=O)O; Dab = NCC[C@H](N)C(=O)O; Nva = CCC[C@H](N)C(=O)O; Dap = NC[C@H](N)C(=O)O

Tests used:
[1] = target: T1, Glutathionylspermidine synthase (Crithidia fasciculata, UniProt P90518); experiment: Inhibitory constant against glutathionylspermidine synthetase (GspS) in Crithidia fasciculata
T1 sequence (P90518 whole entry): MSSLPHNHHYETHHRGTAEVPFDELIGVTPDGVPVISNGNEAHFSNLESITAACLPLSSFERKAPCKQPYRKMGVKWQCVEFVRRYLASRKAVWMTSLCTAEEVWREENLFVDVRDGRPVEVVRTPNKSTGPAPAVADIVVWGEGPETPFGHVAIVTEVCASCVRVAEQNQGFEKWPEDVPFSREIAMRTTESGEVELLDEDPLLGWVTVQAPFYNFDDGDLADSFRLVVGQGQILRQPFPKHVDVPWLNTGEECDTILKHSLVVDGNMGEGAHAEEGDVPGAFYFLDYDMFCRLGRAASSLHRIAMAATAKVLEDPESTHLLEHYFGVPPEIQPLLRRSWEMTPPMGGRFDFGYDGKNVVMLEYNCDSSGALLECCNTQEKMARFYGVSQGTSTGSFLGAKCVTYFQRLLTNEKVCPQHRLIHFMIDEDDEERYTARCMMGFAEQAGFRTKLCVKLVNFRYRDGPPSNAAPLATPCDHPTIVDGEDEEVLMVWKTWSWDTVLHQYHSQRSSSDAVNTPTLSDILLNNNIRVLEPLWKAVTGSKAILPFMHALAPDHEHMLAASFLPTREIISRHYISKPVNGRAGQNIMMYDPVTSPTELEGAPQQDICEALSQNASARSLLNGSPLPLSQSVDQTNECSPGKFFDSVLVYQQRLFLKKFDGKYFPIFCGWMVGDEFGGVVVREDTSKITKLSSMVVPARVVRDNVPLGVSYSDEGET

[2] = target: T2, Glutathionylspermidine synthase (Crithidia fasciculata) (UniProt P90518); experiment: (§1) Tested against glutathionylspermidine synthetase (GspS) in Crithidia fasciculata; design: concentration or dose not given beside the values; settings: concentration not given here
T2 sequence (whole entry): T1 sequence (P90518 whole entry)

[3] = target: T1, Glutathionylspermidine synthase; experiment: as §1

SMILES	Ki [1]	inhibition [2] [%]	IC50 [3] [µM]
CC(C)C[C@H](NC(=O)CC[C@H](NC(=O)OC(C)(C)C)C(=O)OC(C)(C)C)C(=O)N[C@@H](CCCCNCCCNC(=O)OC(C)(C)C)C(=O)O		62	157
CC(C)C[C@H](NC(=O)[C@H](CC(C)C)NC(=O)CC[C@H](N)C(=O)O)C(=O)O		59	365
CCCC[C@H](NC(=O)[C@H](CC(C)C)NC(=O)CC[C@H](N)C(=O)O)C(=O)O		53	
CC(C)C[C@H](NC(=O)CC[C@H](N)C(=O)O)C(=O)N[C@@H](C)C(=O)O (γGlu-Leu-Ala-OH)		87	90
CC(C)C[C@H](NC(=O)CC[C@H](N)C(=O)O)C(=O)N[C@@H](CC(N)=O)C(=O)O (γGlu-Leu-Asn-OH)		68	142
CC(C)C[C@H](NC(=O)CC[C@H](N)C(=O)O)C(=O)N[C@@H](CC(=O)O)C(=O)O (γGlu-Leu-Asp-OH)		69	156
CC(C)C[C@H](NC(=O)CC[C@H](N)C(=O)O)C(=O)N[C@@H](CCC(=O)O)C(=O)O (γGlu-Leu-Glu-OH)		60	227
CC(C)C[C@H](NC(=O)CC[C@H](N)C(=O)O)C(=O)NCC(=O)O (γGlu-Leu-Gly-OH)		0	
CCC[C@H](NC(=O)[C@H](CC(C)C)NC(=O)CC[C@H](N)C(=O)O)C(=O)O (γGlu-Leu-[Nva]-OH)		70	145

Continued, values first:

Ki [1]	inhibition [2] [%]	IC50 [3] [µM]	SMILES
33 µM and 59 µM	93	23	CC(C)C[C@H](NC(=O)CC[C@H](N)C(=O)O)C(=O)N[C@@H](CCCCNCCCN)C(=O)O
32 µM and 86 µM	94	27.9	CC(C)C[C@H](NC(=O)CC[C@H](N)C(=O)O)C(=O)N[C@@H](CCCCNCCCCN)C(=O)O
6.4 µM and 17 µM	95	9.4	CC(C)C[C@H](NC(=O)CC[C@H](N)C(=O)O)C(=O)N[C@@H](CCCN=C(N)N)C(=O)O
27 µM and 48 µM	93	18	CC(C)C[C@H](NC(=O)CC[C@H](N)C(=O)O)C(=O)N[C@@H](CCCCN)C(=O)O (γGlu-Leu-Lys-OH)
14 µM and 25 µM	94	11.7	CC(C)C[C@H](NC(=O)CC[C@H](N)C(=O)O)C(=O)N[C@@H](CO)C(=O)O (γGlu-Leu-Ser-OH)
10.4 µM and 24 µM	95	13.7	CC(C)C[C@H](NC(=O)CC[C@H](N)C(=O)O)C(=O)N[C@@H](CCN)C(=O)O (γGlu-Leu-[Dab]-OH)
7.2 µM and 21 µM	97	9.1	CC(C)C[C@H](NC(=O)CC[C@H](N)C(=O)O)C(=O)N[C@@H](CN)C(=O)O (γGlu-Leu-[Dap]-OH)
10 µM and 39 µM	95	10.3	CC(C)C[C@H](NC(=O)CC[C@H](N)C(=O)O)C(=O)N[C@@H](CCCN)C(=O)O (γGlu-Leu-[Orn]-OH)
